The values that follow come from patent US10710978B2, “STK4 inhibitors for treatment of hematologic malignancies” (Dana-Farber Cancer Institute, Inc., priority 2015, dated 2020).

For one assay, the target named is DCAMKL3 (Homo sapiens (Human), UniProt Q9C098). As to the kind of experiment: Ambit KINOSCAN assay. In kind it is binding. The note with it: read-out: percent control (%) at 1 uM. The protocol: (§1) Kinase Selectivity Studies
(§2) To directly test the kinase selectivity of a compound of the present application over other human protein kinases, the compounds were tested in an Ambit KINOSCAN assay. Ambit KINOSCAN assay is an ATP site dependent competition assay. T7 kinase-tagged phage strains were grown in parallel in 24- or 96-well blocks in an E. coli host derived from the BL21 strain. E. Coli were grown to log phase and infected with T7 phage from a frozen stock and incubated with shaking at about 32° C. until lysis (˜90 min). The lysates were centrifuged (6,000 g) and filtered ([…]) to remove cell debris. […] The liganded beads were blocked with excess biotin and washed with blocking buffer (Seablock (Pierce), 1% BSA, 0.05% Tween 20, 1 mM DTT) to remove unbound ligand and to reduce non-specific phage binding. Binding reactions were assembled by combining phage lysates, liganded affinity beads, and test compounds (i.e., compounds of the present application) in 1× binding buffer (20% SeaBlock, 0.17×PBS, 0.05% Tween […]). Test compounds were prepared 1000× stocks in DMSO and rapidly diluted into the aqueous environment (0.1% DMSO final). DMSO (0.1%) was used as a control. All reactions were carried out in polystyrene 96-well plates that had been pre-treated with blocking buffer in a final volume of 0.1 ml. […] The phage titer in the eluates was measured by standard plaque assays or quantitative PCR. Binding data were fit to the equation […]), where L is the lower baseline, H is the upper baseline, Kd(test) is the biding constant for the interaction between the test compound and the kinase, and [test] is the free test compound concentration. Binding constants are measured in duplicate on the same day of testing. For more details on the Ambit KINOSCAN assay see Fabian, M. A., et al. “A Small Molecule-Kinase Interaction Map for Clinical Kinase Inhibitors” Nat. Biotechol. 23(3), 2005, 329-336. (Also see Davis, M. I., et al. “Comprehensive analysis of kinase inhibitor selectivity.” Nat. Biotechnol. 29(11), 2011, 1046-1051)

A further assay addresses CSNK1G2 (Homo sapiens (Human), UniProt P78368). The experiment in a line: Ambit KINOSCAN assay. The note with it: read-out: percent control (%) at 1 uM. In kind it is binding. The protocol: as §1, §2
The next assay has as its target BMPR1B (Homo sapiens (Human), UniProt O00238). As to the kind of experiment: Ambit KINOSCAN assay. Type of assay: binding. The following applies: read-out: percent control (%) at 1 uM. The method, then: as §1, §2
Another assay addresses VRK2 (Homo sapiens (Human), UniProt Q86Y07). As to the kind of experiment: Ambit KINOSCAN assay. In kind it is binding. The following applies: read-out: percent control (%) at 1 uM. The protocol:
as §1, §2

Another assay deals with CLK2 (Homo sapiens (Human), UniProt P49760). As to the kind of experiment: Ambit KINOSCAN assay. In kind it is binding. The following applies: read-out: percent control (%) at 1 uM. The protocol: as §1, §2
CLK2, sequence (P49760 whole entry): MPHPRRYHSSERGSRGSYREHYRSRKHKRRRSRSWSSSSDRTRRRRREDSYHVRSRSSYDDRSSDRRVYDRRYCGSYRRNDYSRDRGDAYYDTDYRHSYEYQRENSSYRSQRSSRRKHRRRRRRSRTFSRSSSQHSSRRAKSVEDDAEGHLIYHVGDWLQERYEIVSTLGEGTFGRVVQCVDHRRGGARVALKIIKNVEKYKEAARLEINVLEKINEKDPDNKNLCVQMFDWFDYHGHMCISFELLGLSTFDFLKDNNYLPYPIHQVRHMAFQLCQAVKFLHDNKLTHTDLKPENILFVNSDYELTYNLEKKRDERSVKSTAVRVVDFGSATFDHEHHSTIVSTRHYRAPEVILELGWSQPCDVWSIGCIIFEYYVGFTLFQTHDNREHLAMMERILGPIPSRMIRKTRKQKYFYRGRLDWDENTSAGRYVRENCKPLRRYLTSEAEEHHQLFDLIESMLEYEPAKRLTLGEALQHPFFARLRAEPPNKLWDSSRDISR
The next assay has as its target CSNK1G1 (Homo sapiens (Human), UniProt Q9HCP0). The experiment in a line: Ambit KINOSCAN assay. Type of assay: binding. The following applies: read-out: percent control (%) at 1 uM. The protocol:
as §1, §2

A further assay concerns the target GSK3A (Homo sapiens (Human), UniProt P49840). The experiment in a line: Ambit KINOSCAN assay. The note with it: read-out: percent control (%) at 1 uM. Type of assay: binding. The method, then: as §1, §2
The target of a further assay is MST2 (Homo sapiens (Human), UniProt Q13188). The experiment in a line: Ambit KINOSCAN assay. In kind it is binding. The method, then: as §1, §2
MST2, sequence (Q13188 whole entry): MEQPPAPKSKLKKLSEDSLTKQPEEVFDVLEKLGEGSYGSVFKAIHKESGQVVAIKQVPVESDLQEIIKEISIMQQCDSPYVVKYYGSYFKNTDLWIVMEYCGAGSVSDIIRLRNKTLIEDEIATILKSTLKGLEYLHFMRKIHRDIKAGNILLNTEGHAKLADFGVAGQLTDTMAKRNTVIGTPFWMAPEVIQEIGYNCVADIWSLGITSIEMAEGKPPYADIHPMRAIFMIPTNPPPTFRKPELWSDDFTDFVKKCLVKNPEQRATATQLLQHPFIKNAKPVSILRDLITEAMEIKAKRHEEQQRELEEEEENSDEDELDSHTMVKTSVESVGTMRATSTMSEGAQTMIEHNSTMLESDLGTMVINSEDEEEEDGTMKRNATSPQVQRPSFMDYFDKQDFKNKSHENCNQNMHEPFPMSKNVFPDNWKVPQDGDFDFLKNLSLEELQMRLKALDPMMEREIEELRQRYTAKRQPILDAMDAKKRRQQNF
In the next assay the target is MST4 (Homo sapiens (Human), UniProt Q9P289). As to the kind of experiment: Z-lyte biochemical IC50 assay (Invitrogen). The following applies: ATP concentration matched the Km.
The next assay addresses STK4 (Homo sapiens (Human), UniProt Q13043). The experiment in a line: KiNativ Platform experiment, MM.1S cell lysates, biotinylated ATP, Western blot. Type of assay: binding. The following applies: 10 μM, 20 minutes, then biotinylated ATP 10 minutes. The protocol: FIG. 32A and FIG. 32B show the results of a KiNativ™ Platform experiment obtained after incubating MM.1S cell lysates with 10 μM of the indicated compounds for 20 minutes, followed by incubation with biotinylated ATP for 10 minutes. FIG. 32A is a graph showing the ratio of MEK2 to STK4 derived from the Western blotting band signals in FIG. 32B, in MM.1S cell lysates treated with 10 μM of Compound I-9, I-13, or I-27 or KIN001-305 followed by incubation with biotinylated ATP. FIG. 32B is a Western blot showing the levels of STK4 and MEK2 in MM.1S cells treated with 10 μM of Compound I-9, I-13, or I-27 or KIN001-305 followed by incubation with biotinylated ATP.
For orientation: Immunoblotting shows a protein as a band on a membrane.

Another assay addresses ITPK1 (Homo sapiens (Human), UniProt Q13572). As to the kind of experiment: KiNativ assay. In kind it is binding. The following applies: H929 live cell, range class. The protocol: Biochemical IC50s of the compounds of the present disclosure against various kinases were measured in a KiNativ assay. Compounds were screened in duplicate at 10 μM in H929 live cell. IC50 was measured via Mass spectroscopy (MS).

Some results are limits rather than exact numbers.

GSK3A, sequence (P49840 whole entry): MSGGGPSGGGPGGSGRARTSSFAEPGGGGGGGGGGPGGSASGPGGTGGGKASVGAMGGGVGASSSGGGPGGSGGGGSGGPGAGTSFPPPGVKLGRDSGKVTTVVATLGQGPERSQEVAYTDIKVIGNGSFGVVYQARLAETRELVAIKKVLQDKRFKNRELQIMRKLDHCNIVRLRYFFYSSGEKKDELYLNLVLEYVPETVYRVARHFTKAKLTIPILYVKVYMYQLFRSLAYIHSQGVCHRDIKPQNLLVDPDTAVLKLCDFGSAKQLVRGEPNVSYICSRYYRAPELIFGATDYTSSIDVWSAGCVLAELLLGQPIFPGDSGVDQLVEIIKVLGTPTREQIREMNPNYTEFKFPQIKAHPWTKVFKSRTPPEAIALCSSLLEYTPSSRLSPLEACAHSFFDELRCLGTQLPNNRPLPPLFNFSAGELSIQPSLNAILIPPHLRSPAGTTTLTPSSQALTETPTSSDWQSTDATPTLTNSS
CSNK1G2, sequence (P78368 whole entry): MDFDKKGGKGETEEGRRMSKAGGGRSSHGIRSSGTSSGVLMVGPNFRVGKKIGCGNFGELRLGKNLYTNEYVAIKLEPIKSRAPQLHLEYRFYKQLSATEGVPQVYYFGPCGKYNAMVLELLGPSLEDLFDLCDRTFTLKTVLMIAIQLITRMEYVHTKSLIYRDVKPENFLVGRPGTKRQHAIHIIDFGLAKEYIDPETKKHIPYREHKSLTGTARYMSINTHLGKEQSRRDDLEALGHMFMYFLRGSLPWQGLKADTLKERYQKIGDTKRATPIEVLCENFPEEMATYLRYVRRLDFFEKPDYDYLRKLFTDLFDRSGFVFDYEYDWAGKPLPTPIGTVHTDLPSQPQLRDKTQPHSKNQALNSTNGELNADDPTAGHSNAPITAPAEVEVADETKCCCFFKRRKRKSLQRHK
CSNK1G1, sequence (Q9HCP0 whole entry): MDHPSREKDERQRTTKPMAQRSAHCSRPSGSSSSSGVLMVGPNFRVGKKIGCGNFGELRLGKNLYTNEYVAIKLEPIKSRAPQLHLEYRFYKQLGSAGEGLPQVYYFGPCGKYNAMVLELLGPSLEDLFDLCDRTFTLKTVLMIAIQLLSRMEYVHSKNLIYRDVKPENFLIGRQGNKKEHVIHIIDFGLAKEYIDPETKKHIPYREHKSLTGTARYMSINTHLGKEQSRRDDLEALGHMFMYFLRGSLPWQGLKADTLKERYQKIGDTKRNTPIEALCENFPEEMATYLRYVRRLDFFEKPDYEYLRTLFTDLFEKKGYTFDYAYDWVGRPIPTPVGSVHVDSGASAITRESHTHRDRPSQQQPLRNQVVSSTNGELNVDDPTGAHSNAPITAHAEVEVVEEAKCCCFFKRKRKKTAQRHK
DCAMKL3, sequence (Q9C098 whole entry): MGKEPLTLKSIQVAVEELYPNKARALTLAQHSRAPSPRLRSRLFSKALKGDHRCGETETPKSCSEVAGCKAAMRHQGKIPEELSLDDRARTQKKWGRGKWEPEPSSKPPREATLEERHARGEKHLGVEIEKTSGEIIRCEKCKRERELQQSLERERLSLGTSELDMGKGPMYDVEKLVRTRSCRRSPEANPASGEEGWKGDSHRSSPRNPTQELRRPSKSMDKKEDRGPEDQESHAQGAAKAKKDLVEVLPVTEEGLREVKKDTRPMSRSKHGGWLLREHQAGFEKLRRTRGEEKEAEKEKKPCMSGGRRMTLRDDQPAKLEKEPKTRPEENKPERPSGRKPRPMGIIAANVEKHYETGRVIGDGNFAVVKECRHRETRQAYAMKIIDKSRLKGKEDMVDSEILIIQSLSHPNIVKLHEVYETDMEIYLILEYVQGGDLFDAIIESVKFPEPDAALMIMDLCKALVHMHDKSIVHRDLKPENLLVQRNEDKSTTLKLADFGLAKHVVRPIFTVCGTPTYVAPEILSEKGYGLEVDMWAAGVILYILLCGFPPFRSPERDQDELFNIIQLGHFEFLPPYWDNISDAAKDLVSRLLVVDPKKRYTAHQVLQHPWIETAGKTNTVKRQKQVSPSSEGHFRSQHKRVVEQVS
VRK2, sequence (Q86Y07 whole entry): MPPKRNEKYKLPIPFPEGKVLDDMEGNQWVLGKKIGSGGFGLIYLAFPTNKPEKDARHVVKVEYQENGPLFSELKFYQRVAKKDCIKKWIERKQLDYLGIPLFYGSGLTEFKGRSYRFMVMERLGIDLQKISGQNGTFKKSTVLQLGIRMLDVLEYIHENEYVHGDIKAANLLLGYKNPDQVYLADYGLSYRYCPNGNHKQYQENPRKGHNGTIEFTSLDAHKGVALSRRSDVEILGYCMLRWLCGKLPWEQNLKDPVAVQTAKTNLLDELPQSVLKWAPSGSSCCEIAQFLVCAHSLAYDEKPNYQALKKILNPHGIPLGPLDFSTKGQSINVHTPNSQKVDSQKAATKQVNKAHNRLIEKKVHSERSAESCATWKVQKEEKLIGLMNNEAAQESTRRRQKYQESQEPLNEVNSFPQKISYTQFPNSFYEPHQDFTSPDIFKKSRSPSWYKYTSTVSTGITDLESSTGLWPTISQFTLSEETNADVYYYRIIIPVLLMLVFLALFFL
BMPR1B, sequence (O00238 14-502): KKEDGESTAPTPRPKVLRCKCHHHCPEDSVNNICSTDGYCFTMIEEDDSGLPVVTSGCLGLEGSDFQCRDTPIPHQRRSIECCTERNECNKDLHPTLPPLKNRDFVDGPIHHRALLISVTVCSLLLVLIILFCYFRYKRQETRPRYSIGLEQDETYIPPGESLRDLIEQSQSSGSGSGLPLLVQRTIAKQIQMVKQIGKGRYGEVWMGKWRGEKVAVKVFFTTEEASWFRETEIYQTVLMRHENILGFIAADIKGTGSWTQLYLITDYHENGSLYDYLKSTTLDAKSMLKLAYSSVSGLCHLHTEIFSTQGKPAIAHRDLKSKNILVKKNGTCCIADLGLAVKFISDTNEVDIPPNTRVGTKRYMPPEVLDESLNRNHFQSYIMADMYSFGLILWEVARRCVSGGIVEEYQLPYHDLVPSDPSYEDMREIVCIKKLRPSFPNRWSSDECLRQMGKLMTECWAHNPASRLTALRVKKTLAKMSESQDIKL
STK4, sequence (Q13043 whole entry): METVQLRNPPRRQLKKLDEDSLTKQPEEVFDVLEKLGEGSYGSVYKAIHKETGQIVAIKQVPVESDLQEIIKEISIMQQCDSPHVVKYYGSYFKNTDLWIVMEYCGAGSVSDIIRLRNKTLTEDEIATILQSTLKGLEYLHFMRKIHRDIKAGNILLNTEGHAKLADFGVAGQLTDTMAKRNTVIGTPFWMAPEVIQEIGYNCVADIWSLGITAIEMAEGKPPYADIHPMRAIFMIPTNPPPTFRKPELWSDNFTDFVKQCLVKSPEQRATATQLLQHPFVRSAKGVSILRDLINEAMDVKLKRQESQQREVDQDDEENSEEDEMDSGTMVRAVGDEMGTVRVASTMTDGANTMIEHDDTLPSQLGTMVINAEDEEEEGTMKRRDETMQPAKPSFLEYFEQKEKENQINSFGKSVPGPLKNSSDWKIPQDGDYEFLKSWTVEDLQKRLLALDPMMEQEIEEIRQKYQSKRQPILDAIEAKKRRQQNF
ITPK1, sequence (Q13572 whole entry): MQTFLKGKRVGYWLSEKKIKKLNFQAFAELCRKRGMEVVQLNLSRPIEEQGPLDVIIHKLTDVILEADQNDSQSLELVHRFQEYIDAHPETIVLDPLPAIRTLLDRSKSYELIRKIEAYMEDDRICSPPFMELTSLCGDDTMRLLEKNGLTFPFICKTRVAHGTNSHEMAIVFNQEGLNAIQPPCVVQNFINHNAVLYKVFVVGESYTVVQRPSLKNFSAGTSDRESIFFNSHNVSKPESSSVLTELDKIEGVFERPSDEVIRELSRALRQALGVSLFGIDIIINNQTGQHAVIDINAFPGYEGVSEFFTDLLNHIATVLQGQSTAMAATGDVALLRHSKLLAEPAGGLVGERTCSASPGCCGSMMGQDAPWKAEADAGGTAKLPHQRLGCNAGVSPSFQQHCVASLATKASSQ

The term IC50 denotes the point on the concentration scale where inhibition reaches its midpoint. Turning to `Nc1ncc(-c2cc([N+](=O)[O-])ccc2F)cc1-c1ccc2c(c1)CCNC2=O` [Compound I-1, 6-(2-amino-5-(2-fluoro-5-nitrophenyl)pyridin-3-yl)-3,4-dihydroisoquinolin-1(2H)-one], the remaining binding at 1 µM at DCAMKL3 was found to be 2.5%; at CSNK1G2, 4%; at BMPR1B it was 0.75%; on VRK2 it was 2.4%; on CLK2 it was 5%; at CSNK1G1, 4.6%. Moreover, the remaining binding at 1 µM at GSK3A amounted to 0%; on MST2 (read-out: percent control (%) at 1 uM) it was 1.2%. Besides, the IC50 against MST2 (Kinase Selectivity Data, MST2) was 42.6 nM; on MST4 it was over 900 nM.
With `Nc1ncc(-c2cccc([N+](=O)[O-])c2F)cc1-c1ccc2c(c1)CCNC2=O` [Compound I-9, 6-(2-amino-5-(2-fluoro-3-nitrophenyl)pyridin-3-yl)-3,4-dihydroisoquinolin-1(2H)-one], on STK4, the “affinity for STK4, as of ATP binding” value is “highest affinity”.
A word on the inhibition: it is the percentage by which the read-out fell short of the control. Low readings indicate a weak effect, high ones a strong effect. In turn, `Nc1ncc(-c2ccc(NS(=O)(=O)C3CC3)cc2OC2CCCCC2)cc1-c1ccc2c(c1)CCNC2=O` [Compound I-65, N-(4-(6-amino-5-(1-oxo-1,2,3,4-tetrahydroisoquinolin-6-yl)pyridin-3-yl)-3-(cyclohexyloxy)phenyl) cyclopropanesulfonamide] came in with an inhibition at 10 µM against ITPK1 of over 100%.
